# Test system: Detoxification protein genes
# Test: DNA chip mRNA expression in yeast, detoxification protein genes (Table 8)
# Type: cell-based, Saccharomyces cerevisiae S288C
# In short: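 Values are treated/untreated fluorescence ratios from a whole-genome yeast DNA chip hybridized over 12 hours at 65° C with Cy3- or Cy5-labelled cDNA from poly(A) mRNA. Log-phase S288C yeast in YPD at 25° C had received a single toxic chemical for two hours, dosed to slow growth without killing.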
smiles,measurement,setting,value
"N#Cc1c(Cl)c(Cl)c(Cl)c(C#N)c1Cl [(9), 2,4,5,6-tetrachloro-1,3-benzenedicarbonitrile]",The level of expressed mRNA in the presence of chemical substance/The level of expressed mRNA in the absence of chemical substance,yeast gene YBL064C,4.5
same,The level of expressed mRNA in the presence of chemical substance/The level of expressed mRNA in the absence of chemical substance,yeast gene YBR008C,54.6
same,The level of expressed mRNA in the presence of chemical substance/The level of expressed mRNA in the absence of chemical substance,yeast gene YBR145W,0.1
same,The level of expressed mRNA in the presence of chemical substance/The level of expressed mRNA in the absence of chemical substance,yeast gene YBR244W,1.4
same,The level of expressed mRNA in the presence of chemical substance/The level of expressed mRNA in the absence of chemical substance,yeast gene YBR293W,5.5
same,The level of expressed mRNA in the presence of chemical substance/The level of expressed mRNA in the absence of chemical substance,yeast gene YCL035C,1.9
same,The level of expressed mRNA in the presence of chemical substance/The level of expressed mRNA in the absence of chemical substance,yeast gene YCL069W,1.2
same,The level of expressed mRNA in the presence of chemical substance/The level of expressed mRNA in the absence of chemical substance,yeast gene YCR083W,1.8
same,The level of expressed mRNA in the presence of chemical substance/The level of expressed mRNA in the absence of chemical substance,yeast gene YDL100C,5.4
same,The level of expressed mRNA in the presence of chemical substance/The level of expressed mRNA in the absence of chemical substance,yeast gene YDL168W,8.2
same,The level of expressed mRNA in the presence of chemical substance/The level of expressed mRNA in the absence of chemical substance,yeast gene YDR256C,5.2
same,The level of expressed mRNA in the presence of chemical substance/The level of expressed mRNA in the absence of chemical substance,yeast gene YDR453C,4.5
same,The level of expressed mRNA in the presence of chemical substance/The level of expressed mRNA in the absence of chemical substance,yeast gene YDR513W,4.6
same,The level of expressed mRNA in the presence of chemical substance/The level of expressed mRNA in the absence of chemical substance,yeast gene YDR538W,0.3
same,The level of expressed mRNA in the presence of chemical substance/The level of expressed mRNA in the absence of chemical substance,yeast gene YEL027W,0.9
same,The level of expressed mRNA in the presence of chemical substance/The level of expressed mRNA in the absence of chemical substance,yeast gene YEL065W,0.1
same,The level of expressed mRNA in the presence of chemical substance/The level of expressed mRNA in the absence of chemical substance,yeast gene YER185W,2.9
same,The level of expressed mRNA in the presence of chemical substance/The level of expressed mRNA in the absence of chemical substance,yeast gene YFL050C,0.5
same,The level of expressed mRNA in the presence of chemical substance/The level of expressed mRNA in the absence of chemical substance,yeast gene YGL013C,3.0
same,The level of expressed mRNA in the presence of chemical substance/The level of expressed mRNA in the absence of chemical substance,yeast gene YGL254W,3.1
same,The level of expressed mRNA in the presence of chemical substance/The level of expressed mRNA in the absence of chemical substance,yeast gene YGR088W,1.5
same,The level of expressed mRNA in the presence of chemical substance/The level of expressed mRNA in the absence of chemical substance,yeast gene YGR138C,0.5
same,The level of expressed mRNA in the presence of chemical substance/The level of expressed mRNA in the absence of chemical substance,yeast gene YGR197C,16.7
same,The level of expressed mRNA in the presence of chemical substance/The level of expressed mRNA in the absence of chemical substance,yeast gene YGR209C,2.4
same,The level of expressed mRNA in the presence of chemical substance/The level of expressed mRNA in the absence of chemical substance,yeast gene YGR224W,0.9
same,The level of expressed mRNA in the presence of chemical substance/The level of expressed mRNA in the absence of chemical substance,yeast gene YHL040C,1.1
same,The level of expressed mRNA in the presence of chemical substance/The level of expressed mRNA in the absence of chemical substance,yeast gene YHL047C,1.2
same,The level of expressed mRNA in the presence of chemical substance/The level of expressed mRNA in the absence of chemical substance,yeast gene YHR008C,1.7
same,The level of expressed mRNA in the presence of chemical substance/The level of expressed mRNA in the absence of chemical substance,yeast gene YHR048W,4.5
same,The level of expressed mRNA in the presence of chemical substance/The level of expressed mRNA in the absence of chemical substance,yeast gene YHR053C,4.5
same,The level of expressed mRNA in the presence of chemical substance/The level of expressed mRNA in the absence of chemical substance,yeast gene YHR055C,3.9
same,The level of expressed mRNA in the presence of chemical substance/The level of expressed mRNA in the absence of chemical substance,yeast gene YIR002C,1.7
same,The level of expressed mRNA in the presence of chemical substance/The level of expressed mRNA in the absence of chemical substance,yeast gene YIR038C,4.6
same,The level of expressed mRNA in the presence of chemical substance/The level of expressed mRNA in the absence of chemical substance,yeast gene YJL101C,3.1
same,The level of expressed mRNA in the presence of chemical substance/The level of expressed mRNA in the absence of chemical substance,yeast gene YJR104C,1.9
same,The level of expressed mRNA in the presence of chemical substance/The level of expressed mRNA in the absence of chemical substance,yeast gene YKL026C,7.5
same,The level of expressed mRNA in the presence of chemical substance/The level of expressed mRNA in the absence of chemical substance,yeast gene YKL064W,2.4
same,The level of expressed mRNA in the presence of chemical substance/The level of expressed mRNA in the absence of chemical substance,yeast gene YKR066C,0.7
same,The level of expressed mRNA in the presence of chemical substance/The level of expressed mRNA in the absence of chemical substance,yeast gene YKR105C,1.0
same,The level of expressed mRNA in the presence of chemical substance/The level of expressed mRNA in the absence of chemical substance,yeast gene YKR106W,10.5
same,The level of expressed mRNA in the presence of chemical substance/The level of expressed mRNA in the absence of chemical substance,yeast gene YLL028W,1.2
same,The level of expressed mRNA in the presence of chemical substance/The level of expressed mRNA in the absence of chemical substance,yeast gene YLL057C,121.8
same,The level of expressed mRNA in the presence of chemical substance/The level of expressed mRNA in the absence of chemical substance,yeast gene YLL060C,13.0
same,The level of expressed mRNA in the presence of chemical substance/The level of expressed mRNA in the absence of chemical substance,yeast gene YLR043C,2.8
same,The level of expressed mRNA in the presence of chemical substance/The level of expressed mRNA in the absence of chemical substance,yeast gene YLR046C,1.0
same,The level of expressed mRNA in the presence of chemical substance/The level of expressed mRNA in the absence of chemical substance,yeast gene YML028W,0.8
same,The level of expressed mRNA in the presence of chemical substance/The level of expressed mRNA in the absence of chemical substance,yeast gene YML116W,1.4
same,The level of expressed mRNA in the presence of chemical substance/The level of expressed mRNA in the absence of chemical substance,yeast gene YMR015C,0.1
same,The level of expressed mRNA in the presence of chemical substance/The level of expressed mRNA in the absence of chemical substance,yeast gene YMR038C,2.4
same,The level of expressed mRNA in the presence of chemical substance/The level of expressed mRNA in the absence of chemical substance,yeast gene YNL239W,2.5
same,The level of expressed mRNA in the presence of chemical substance/The level of expressed mRNA in the absence of chemical substance,yeast gene YNL241C,3.4
same,The level of expressed mRNA in the presence of chemical substance/The level of expressed mRNA in the absence of chemical substance,yeast gene YNL259C,1.6
same,The level of expressed mRNA in the presence of chemical substance/The level of expressed mRNA in the absence of chemical substance,yeast gene YOL158C,1.7
same,The level of expressed mRNA in the presence of chemical substance/The level of expressed mRNA in the absence of chemical substance,yeast gene YOR031W,0.7
same,The level of expressed mRNA in the presence of chemical substance/The level of expressed mRNA in the absence of chemical substance,yeast gene YOR153W,3.2
same,The level of expressed mRNA in the presence of chemical substance/The level of expressed mRNA in the absence of chemical substance,yeast gene YOR247W,0.1
same,The level of expressed mRNA in the presence of chemical substance/The level of expressed mRNA in the absence of chemical substance,yeast gene YOR251C,0.8
same,The level of expressed mRNA in the presence of chemical substance/The level of expressed mRNA in the absence of chemical substance,yeast gene YOR273C,0.6
same,The level of expressed mRNA in the presence of chemical substance/The level of expressed mRNA in the absence of chemical substance,yeast gene YPL163C,0.1
same,The level of expressed mRNA in the presence of chemical substance/The level of expressed mRNA in the absence of chemical substance,yeast gene YPR200C,4.7

# Reference: patent US8192962B2, “Processes for detecting toxic substances” (Daikin Industries, Ltd., priority 2001, dated 2012)
